Common to all, as to assay type: cell-based
The subject of experiment [1] is OVCAR-3 (ovarian carcinoma). The experiment is described as follows: MTS cell viability assay, OVCAR-3. The settings on record: 120 h for the OVCAR cell lines. The procedure:
(§1) Cells were plated, the evening before treatment, for each treatment on 96-well plates (1×10^4 cells/well) in 100 μL volume per well. Analog solutions were prepared by diluting each test compound in DMSO (10 mM) with the appropriate cell growth media for each individual cell line, or in “Universal Media” if several cell lines were to be assayed in parallel, immediately prior to cell treatment. Universal Media consisted of 5 mL sodium pyruvate (100× liquid stock, MediaTech), 5 mL glucose (100×, 45% liquid stock, MediaTech), 5 mL Penicillin/Streptomycin (100× liquid stock, MediaTech), 10 mL sodium bicarbonate (50× liquid stock, MediaTech), 25 mL Fetal Calf Serum, 1.25 mL insulin (4 mg/mL, Gibco) and 449 mL RPMI media with 2 mM L-glutamine for a total volume of 500 mL.
Cells were treated by aspirating plating media from each well and adding 80 μL of betulinic acid (control) or each analog solution in serial dilutions to the adherent cells. […] Absorbances at 490 nm were measured on a Wallac Victor II plate reader at multiple time points following the addition of MTS reagent for each plate. Triplicate absorbance (490 nm) measurements were averaged following background (no cell) subtraction for each drug concentration. Percent Cell Viability was calculated for each drug concentration using the following equation:
{[Absorbance(analog treated)]/[Absorbance(DMSO treated)]}×100% […]
On the technique in general: Tetrazolium dyes change colour on reduction, which living cells bring about.

Another experiment concerns Daoy (glioblastoma). The experiment is described as follows: MTS cell viability assay, Daoy. The conditions noted are these: 72 h incubation. The procedure:
as §1
(§2) Cells were treated by aspirating plating media from each well and adding 80 μL of betulinic acid (control) or each analog solution in serial dilutions to the adherent cells. All treatments were performed in triplicate. Growth media (80 μL) was added to 3 blank wells (no cells) to measure background from the growth media. Growth media alone (no DMSO or test compound) was added to 3 wells containing cells to measure the baseline MTS activity. Vehicle (DMSO) control in serial dilutions, added to cells, was also included to monitor basal toxicity from DMSO. Cells were incubated at 37° C. for 72 h, or 120 h for the OVCAR cell lines. MTS reagent (per 96-well plate) were prepared by combining 2 mL of MTS working solution (Cell Titer Aqueous Non-Radioactive Cell Proliferation Assay, Promega, cat#G1112), 100 μL of 0.92 mg/mL phenazine methosulfate/Dulbecco's PBS and 2.1 mL growth media. MTS reagent (40 μL) was added to each well and incubated at 37° C. for 1.5 to 4 h. Plates were gently shaken by hand until solution in each well appeared homogenous. Absorbances at 490 nm were measured on a Wallac Victor II plate reader at multiple time points following the addition of MTS reagent for each plate. Triplicate absorbance (490 nm) measurements were averaged following background (no cell) subtraction for each drug concentration. Percent Cell Viability was calculated for each drug concentration using the following equation:
(§3) {[Absorbance(analog treated)]/[Absorbance(DMSO treated)]}×100%
(§4) Percent viability (y-axis) was plotted against drug concentration (x-axis) and the resulting graph was used to determine the 50% inhibitory concentration (IC50) for each drug.
(§5) Cytotoxicity dose response for the synthesized triterpenoid derivatives in SK-MEL-2 (melanoma), A-375 (melanoma), Daoy (glioblastoma), LN-229 (glioblastoma), OVCAR-3 (ovarian carcinoma), HT-29 (colon carcinoma), MCF-7 (breast carcinoma) cell lines using the standard MTS assay (described above) is summarized in Table 1.

A further experiment has as its system SK-MEL-2 (melanoma). Nature of the experiment: MTS cell viability assay, SK-MEL-2. The conditions noted are these: 72 h incubation. The procedure:
as §1, §2, §3, §4, §5

The next experiment relates to A-375 (melanoma). Nature of the experiment: MTS cell viability assay, A-375. The conditions noted are these: 72 h incubation. The procedure: as §1, §2, §3, §4, §5
The subject of a further experiment is HT-29 (colon carcinoma). The experiment is described as follows: MTS cell viability assay, HT-29. The conditions noted are these: 72 h incubation. Here is the method:
as §1, §2, §3, §4, §5

The next experiment deals with MCF-7 (breast carcinoma). The experiment is described as follows: MTS cell viability assay, MCF-7. The settings on record: 72 h incubation. Here is the method:
as §1, §2, §3, §4, §5

A further experiment concerns LN-229 (glioblastoma). The experiment is described as follows: MTS cell viability assay, LN-229. The settings on record: 72 h incubation. The procedure: as §1, §2, §3, §4, §5

In patent publication US20100144688A1, “23-Substituted Derivatives of Lupane-type Pentacyclic Triterpenoids” (ADVANCED LIFE SCIENCES, INC., priority 2008, published 2010) one finds IC50 data, which are given here for 1 molecule.

Usually IC50 stands for the concentration that gives 50% inhibition.

For the molecule `C=C(C)[C@@H]1CC[C@]2(C(=O)O)CC[C@]3(C)[C@H](CC[C@@H]4[C@@]5(C)CC[C@H](O)C(C)(C)[C@@H]5CC[C@]43C)[C@@H]12` [Compound 2, betulinic acid, reference compound], the IC50 in experiment [1] was 59 µM; in the experiment with Daoy (glioblastoma), 31 µM; with SK-MEL-2 (melanoma) it was 33 µM; with A-375 (melanoma), 51 µM; in the experiment on HT-29 (colon carcinoma), 37 µM; in the experiment with MCF-7 (breast carcinoma) it was 50 µM. In addition, in the experiment on LN-229 (glioblastoma), the IC50 came to 61 µM.
